In patent publication US8772283B2, “Imidazo-oxazine compound or salt thereof” (Taiho Pharmaceutical Co., Ltd., priority 2011, dated 2014):
pIC50: −log10 of the molar value. Counter-ions that a name gives are not always drawn.

Tests used:
human AKT1 = human AKT1 (Homo sapiens (Human), UniProt P31749); assay: AKT1 kinase activity inhibition (TR-FRET, biotinylated Crosstide substrate); assay type: biochemical; conditions: preincubation 120 min at 25° C.; ATP 150 μM; Crosstide 500 nM
Protocol: (§1) Preparation of AKT1 and AKT2 and measurement of in vitro inhibitory activity of the above-mentioned compounds against AKT1 and AKT2 kinase activity were carried out with reference to the method disclosed in Biochem. J. Vol. 385, pp 399-408 (2005). In the preparation of AKT1 and AKT2, human AKT1 and AKT2 to which a middle T antigen tag was added were expressed in Sf 9 insect cells, and then AKT1 and AKT2 were prepared following affinity purification and activation by PDK1. The prepared AKT1 and AKT2 were stored at −80° C. until the time of measurement of inhibitory activity of the compounds. In the measurement of inhibitory activity of the compounds, AKT1 or AKT2 and each compound of the present invention were preincubated at 25° C. for 120 minutes in a buffer solution for reaction (15 mM Tris-HCl pH 7.5, 0.01% Tween-20, 2 mM DTT). As a substrate, biotinylated Crosstide (bioton-KGSGSGRPRTSSFAEG), MgCl2, and ATP were added to final concentrations of 500 nM, 10 mM, and 150 μM, respectively, and reactions were carried out at 25° C. for 60 minutes. The reactions were stopped by adding EDTA to a final concentration of 80 mM. Then, a detection liquid in which an Eu-labeled anti-phosphorylation Crosstide antibody (PerkinElmer) and SureLight APC-SA (PerkinElmer) were contained at a final concentration of 0.5 nM and […], respectively, was added, and reactions were carried out at room temperature for 2 hours. Finally, the amount of fluorescence at the time of irradiation of excitation light having a wavelength of 337 nm was measured at dual wavelengths of 620 nm and 665 nm by PHERAstar FS (BMG LABTECH). The amount of phosphorylation was determined from the ratio of the fluorescence amounts at the dual wavelengths. The compound concentration at which phosphorylation can be inhibited by 50% was defined as […] (nM), and the results are shown in Table 4 below.

human AKT2 = human AKT2 (Homo sapiens (Human), UniProt P31751); assay: AKT2 kinase activity inhibition (TR-FRET, biotinylated Crosstide substrate); assay type: biochemical; conditions: preincubation 120 min at 25° C.; ATP 150 μM; Crosstide 500 nM
Sequence of human AKT2 (P31751 whole entry): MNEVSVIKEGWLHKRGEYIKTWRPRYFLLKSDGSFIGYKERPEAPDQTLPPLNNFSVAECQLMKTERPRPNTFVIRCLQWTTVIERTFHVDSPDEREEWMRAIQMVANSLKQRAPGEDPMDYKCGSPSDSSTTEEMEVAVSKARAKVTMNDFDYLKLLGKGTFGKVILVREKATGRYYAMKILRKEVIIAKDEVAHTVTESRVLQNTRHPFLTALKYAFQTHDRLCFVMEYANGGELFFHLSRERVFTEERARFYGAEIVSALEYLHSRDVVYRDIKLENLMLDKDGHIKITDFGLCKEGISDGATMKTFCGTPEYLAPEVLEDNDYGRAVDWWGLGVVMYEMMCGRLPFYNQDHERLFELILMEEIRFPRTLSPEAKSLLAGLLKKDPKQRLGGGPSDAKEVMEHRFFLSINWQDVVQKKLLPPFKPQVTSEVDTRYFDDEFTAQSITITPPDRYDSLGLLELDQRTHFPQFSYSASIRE
Protocol: as §1

Sequence of human AKT1 (P31749 whole entry): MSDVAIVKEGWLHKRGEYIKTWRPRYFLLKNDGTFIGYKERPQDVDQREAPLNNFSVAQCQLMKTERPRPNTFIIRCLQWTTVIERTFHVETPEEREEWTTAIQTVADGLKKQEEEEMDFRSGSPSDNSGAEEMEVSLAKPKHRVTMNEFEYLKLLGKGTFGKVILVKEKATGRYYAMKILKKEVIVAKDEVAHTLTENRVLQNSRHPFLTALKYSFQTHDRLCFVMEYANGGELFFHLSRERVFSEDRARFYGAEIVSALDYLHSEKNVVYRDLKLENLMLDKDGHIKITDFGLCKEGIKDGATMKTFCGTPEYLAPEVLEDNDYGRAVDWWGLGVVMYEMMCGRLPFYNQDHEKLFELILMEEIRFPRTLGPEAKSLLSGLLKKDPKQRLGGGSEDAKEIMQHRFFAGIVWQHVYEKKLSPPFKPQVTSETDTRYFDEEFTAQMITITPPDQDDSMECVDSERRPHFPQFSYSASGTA

Row | SMILES | pIC50 (human AKT1) | pIC50 (human AKT2)
1 | CC1(O)CC(N)(c2ccc(-c3nc4n(c3-c3ccccc3)COc3cccc(F)c3-4)cc2)C1 (stereo not drawn) [Example 2, trans-3-amino-3-(4-(10-fluoro-3-phenyl-5H-benzo[e]imidazo[1,2-c][1,3]oxazin-2-yl)phenyl)-1-methylcyclobutanol] | 8.34 | 9.30
2 | CC1(O)CC(N)(c2ccc(-c3nc4n(c3-c3ccccc3)COc3ccc(C(=O)O)cc3-4)cc2)C1 (stereo not drawn) [Example 63, 2-(4-(trans-1-amino-3-hydroxy-3-methylcyclobutyl)phenyl)-3-phenyl-5H-benzo[e]imidazo[1,2-c][1,3]oxazine-9-carboxylic acid hydrochloride] | 8.30 | 9.04
3 | CC1(O)CC(N)(c2ccc(-c3nc4n(c3-c3ccccc3)COc3ccc(C(N)=O)cc3-4)cc2)C1 (stereo not drawn) [Example 53, 2-(4-(trans-1-amino-3-hydroxy-3-methylcyclobutyl)phenyl)-3-phenyl-5H-benzo[e]imidazo[1,2-c][1,3]oxazine-9-carboxamide] | 8.80 | 9.59
4 | CN(C)C(=O)c1ccc2c(c1)OCn1c-2nc(-c2ccc(C3(N)CC(C)(O)C3)cc2)c1-c1ccccc1 (stereo not drawn) [Example 57, 2-(4-(trans-1-amino-3-hydroxy-3-methylcyclobutyl)phenyl)-N,N-dimethyl-3-phenyl-5H-benzo[e]imidazo[1,2-c][1,3]oxazine-8-carboxamide] | 7.82 | 8.46
5 | CC1(O)CC(N)(c2ccc(-c3nc4n(c3-c3ccsc3)COc3cccc(F)c3-4)cc2)C1 (stereo not drawn) [Example 6, trans-3-amino-3-(4-(10-fluoro-3-(thiophen-3-yl)-5H-benzo[e]imidazo[1,2-c][1,3]oxazin-2-yl)phenyl)-1-methylcyclobutanol] | 8.01 | 9.04
6 | NC1(c2ccc(-c3nc4n(c3-c3ccccc3)COc3ccccc3-4)cc2)CCC1 [Example 13, 1-(4-(3-phenyl-5H-benzo[e]imidazo[1,2-c][1,3]oxazin-2-yl)phenyl)cyclobutanamine] | 7.89 | 8.55
7 | CC1(O)CC(N)(c2ccc(-c3nc4n(c3-c3ccccc3)COc3ncccc3-4)cc2)C1 (stereo not drawn) [Example 39, trans-3-amino-1-methyl-3-(4-(3-phenyl-5H-imidazo[1,2-c]pyrido[3,2-e][1,3]oxazin-2-yl)phenyl)cyclobutanol] | 8.85 | 9.01
8 | COc1cccc2c1OCn1c-2nc(-c2ccc([C@]3(N)C[C@@](O)(C4CC4)C3)cc2)c1-c1ccccc1 [Example 19, trans-3-amino-1-cyclopropyl-3-(4-(7-methoxy-3-phenyl-5H-benzo[e]imidazo[1,2-c][1,3]oxazin-2-yl)phenyl)cyclobutanol] | 7.80 | 8.70
9 | Cc1ccc2c(n1)-c1nc(-c3ccc(C4(N)CC(C)(O)C4)cc3)c(-c3ccccc3)n1CO2 (stereo not drawn) [Example 50, trans-3-amino-1-methyl-3-(4-(9-methyl-3-phenyl-5H-imidazo[1,2-c]pyrido[2,3-e][1,3]oxazin-2-yl)phenyl)cyclobutanol] | 7.96 | 9.07
10 | NC1(c2ccc(-c3nc4n(c3-c3ccccc3)COc3cccc(F)c3-4)cc2)CCC1 [Example 3, 1-(4-(10-fluoro-3-phenyl-5H-benzo[e]imidazo[1,2-c][1, 3]oxazin-2-yl)phenyl)cyclobutanamine] | 7.80 | 8.92
11 | C[C@]1(O)C[C@@](N)(c2ccc(-c3nc4n(c3-c3ccccc3)COc3cc(F)ccc3-4)cc2)C1 [Example 9, trans-3-amino-3-(4-(8-fluoro-3-phenyl-5H-benzo[e]imidazo[1,2-c][1,3]oxazin-2-yl)phenyl)-1-methylcyclobutanol] | 8.07 | 8.70
12 | CC1(O)CC(N)(c2ccc(-c3nc4n(c3-c3ccccc3)COc3cc(C(=O)NCCO)ccc3-4)cc2)C1 (stereo not drawn) [Example 58, 2-(4-(trans-1-amino-3-hydroxy-3-methylcyclobutyl)phenyl)-N-(2-hydroxyethyl)-3-phenyl-5H-benzo[e]imidazo[1,2-c][1,3]oxazine-8-carboxamide] | 8.51 | 9.15
13 | NC1(c2ccc(-c3nc4n(c3-c3ccsc3)COc3ccccc3-4)cc2)CCC1 [Example 14, 1-(4-(3-(thiophen-3-yl)-5H-benzo[e]imidazo[1,2-c][1,3]oxazin-2-yl)phenyl)cyclobutanamine] | 7.57 | 8.27
14 | NC1(c2ccc(-c3nc4n(c3-c3ccsc3)COc3cccc(F)c3-4)cc2)CC(O)(C2CC2)C1 (stereo not drawn) [Example 4, trans-3-amino-1-cyclopropyl-3-(4-(10-fluoro-3-(thiophen-3-yl)-5H-benzo[e]imidazo[1,2-c][1,3]oxazin-2-yl)phenyl)cyclobutanol] | 8.15 | 9.15
15 | NC1(c2ccc(-c3nc4n(c3-c3ccccc3)COc3c(F)cccc3-4)cc2)CC(O)(C2CC2)C1 (stereo not drawn) [Example 10, trans-3-amino-1-cyclopropyl-3-(4-(7-fluoro-3-phenyl-5H-benzo[e]imidazo[1,2-c][1,3]oxazin-2-yl)phenyl)cyclobutanol] | 8.64 | 8.85
16 | NC1(c2ccc(-c3nc4n(c3-c3ccccc3)COc3cccnc3-4)cc2)CCC1 [Example 29, 1-(4-(3-phenyl-5H-imidazo[1,2-c]pyrido[2,3-e][1,3]oxazin-2-yl)phenyl)cyclobutanamine] | 7.46 | 8.40
17 | CCNC(=O)c1ccc2c(c1)-c1nc(-c3ccc(C4(N)CC(C)(O)C4)cc3)c(-c3ccccc3)n1CO2 (stereo not drawn) [Example 55, 2-(4-(trans-1-amino-3-hydroxy-3-methylcyclobutyl)phenyl)-N-ethyl-3-phenyl-5H-benzo[e]imidazo[1,2-c][1,3]oxazine-9-carboxamide] | 8.74 | 9.51
18 | CC1(O)CC(N)(c2ccc(-c3nc4n(c3-c3ccccc3)COc3ccc(F)cc3-4)cc2)C1 (stereo not drawn) [Example 8, trans-3-amino-3-(4-(9-fluoro-3-phenyl-5H-benzo[e]imidazo[1,2-c][1,3]oxazin-2-yl)phenyl)-1-methylcyclobutanol] | 8.19 | 9.00
19 | Cc1cccc2c1OCn1c-2nc(-c2ccc([C@]3(N)C[C@@](O)(C4CC4)C3)cc2)c1-c1ccccc1 [Example 26, trans-3-amino-1-cyclopropyl-3-(4-(7-methyl-3-phenyl-5H-benzo[e]imidazo[1,2-c][1,3]oxazin-2-yl)phenyl)cyclobutanol] | 7.59 | 8.82
20 | CC1(O)CC(N)(c2ccc(-c3nc4n(c3-c3ccccc3)COc3cc(CO)ccc3-4)cc2)C1 (stereo not drawn) [Example 45, trans-3-amino-3-(4-(8-(hydroxymethyl)-3-phenyl-5H-benzo[e]imidazo[1,2-c][1,3]oxazin-2-yl)phenyl)-1-methylcyclobutanol] | 8.07 | 8.57
21 | CC1(O)CC(N)(c2ccc(-c3nc4n(c3-c3ccccc3)COc3ccc(-c5cn[nH]c5)cc3-4)cc2)C1 (stereo not drawn) [Example 49, trans-3-amino-1-methyl-3-(4-(3-phenyl-9-(1H-pyrazol-4-yl)-5H-benzo[e]imidazo[1,2-c][1,3]oxazin-2-yl)phenyl)cyclobutanol] | 8.89 | 9.38
22 | CCOc1cccc2c1-c1nc(-c3ccc(C4(N)CC(O)(C5CC5)C4)cc3)c(-c3ccccc3)n1CO2 (stereo not drawn) [Example 23, trans-3-amino-1-cyclopropyl-3-(4-(10-ethoxy-3-phenyl-5H-benzo[e]imidazo[1,2-c][1,3]oxazin-2-yl)phenyl)cyclobutanol] | 7.55 | 8.77
